According to patent US8470819B2, “Benzimidazole and aza-benzimidazole carboxamides” (Merck Sharp & Dohme Corp., priority 2008, dated 2013):

biological target: T1, full-length human PAFR (Homo sapiens, UniProt P25105); assay: PAF Binding Assay; settings: 3H-PAF competition, membranes from CHO cells over-expressing human PAFR, SPA beads
T1 construct: PAFR was derived from membranes from CHO cells over-expressing the full-length human PAFR; expressed in transfected cells; host or cells: CHO cells (membranes)
Protocol: PAFR was derived from membranes from CHO cells over-expressing the full-length human PAFR. Supernatant from the cell homogenate pellet (3000×g) is pelleted (35000×g), and the resulting pellet is resuspended in a Tris HCl buffer (50 mM Iris HCl pH 7.4, 5 mM MgCl2, 30% glycerol) to afford a parent PAFR stock that is diluted in PAF binding buffer (50 mM HEPES pH 7.0, 10 mM MgCl2, 5 mM CaCl2, 5 mM D-(+)glucose, 0.25% fatty-acid free BSA) to afford a PAFR assay stock (120 μg/mL) prior to each use.
Binding buffer (48 μL) and competitor compound (i.e., the compound to be tested) in DMSO (2 μL) were added to a 96-well plate. Cold PAF C-18 (200 nM final concentration) was used to determine non-specific binding. 25000 cpm of ^3H-PAF (25 μL of a stock solution in PAF binding buffer) was added to all wells, and the plates sealed and shaken at rt for 5 min. PAFR assay stock (3 μg/well) was added, and the plate was sealed and shaken at rt for 2 h. SPA beads^1 (10 μL of a 25 mg/mL suspension in binding buffer) were added to all wells, and the plates were sealed and shaken for 30 min. The plates were centrifuged (1900 rpm for 5 min.), allowed to stand for 30 min. and read on a Microbeta TriLux counter.
Specific binding is defined as total binding minus non-specific binding. Total binding was the amount of ^3H-PAF bound to SPA beads in the absence of competitor; non-specific binding was ^3H-PAF bound in the presence of 30 μM Compound A.^2 The IC50 values were obtained by computer analysis of the experimental data.^3 Percent inhibition was calculated as 100−[(Sample-Non-specific bound)/(Total bound Non-specific bound)×100]

T1 sequence (P25105 whole entry): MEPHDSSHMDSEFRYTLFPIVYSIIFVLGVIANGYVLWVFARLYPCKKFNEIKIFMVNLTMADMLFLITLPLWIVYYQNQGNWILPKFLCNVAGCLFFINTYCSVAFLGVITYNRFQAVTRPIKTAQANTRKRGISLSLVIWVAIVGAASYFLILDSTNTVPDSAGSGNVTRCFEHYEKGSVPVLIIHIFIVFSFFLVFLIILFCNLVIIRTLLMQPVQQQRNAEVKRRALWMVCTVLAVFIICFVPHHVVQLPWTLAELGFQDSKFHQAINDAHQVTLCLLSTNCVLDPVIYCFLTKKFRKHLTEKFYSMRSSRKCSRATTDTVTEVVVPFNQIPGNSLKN

O=C(c1ccc2c(c1)nc(-c1ccc(OC(F)(F)F)cc1)n2C1CCC1)N1CCC(c2cccnc2)C1 (stereo not drawn) [Example 1Fr, 1-cyclobutyl-5-[(3-pyridin-3-ylpyrrolidin-1-yl)carbonyl]-2-[4-(trifluoromethoxy)phenyl]-1H-benzimidazole] and CC1(n2c(-c3ccc(OC(F)(F)F)cc3)nc3cc(C(=O)N4CCC(c5cccnc5)C4)ccc32)CC1 (stereo not drawn) [Example 1Gr, 1-(1-methylcyclopropyl)-5-[(3-pyridin-3-ylpyrrolidin-1-yl)carbonyl]-2-[4-(trifluoromethoxy)phenyl]-1H-benzimidazole] are within 1.5-fold of each other in IC50: 9 nM for the first, 10 nM for the second.

Going from CC(C)c1nc2cc(C(=O)N3CCC(c4cccnc4)C3)ccc2n1-c1ccc(OC(F)(F)F)cc1 (single isomer, unassigned) [Example 1c, 2-isopropyl-5-[(3-pyridin-3-ylpyrrolidin-1-yl)carbonyl]-1-[4-(trifluoromethoxy)phenyl]-1H-benzimidazole] to CC(C)n1c(-c2ccc(OC(F)(F)F)cc2)nc2cc(C(=O)N3CCC(c4cccnc4)C3)ccc21 (single isomer, unassigned) [Example 1Ar, 1-isopropyl-5-[(3-pyridin-3-ylpyrrolidin-1-yl)carbonyl]-2-[4-(trifluoromethoxy)phenyl]-1H-benzimidazole], the IC50 falls from 11 nM to 2 nM (5.5-fold). The second is the more potent here.

In the case of CC(C)n1c(-c2ccc(OC(F)(F)F)cc2)nc2cc(C(=O)N3CCC(O)(c4cccnc4)C3)ccc21 (stereo not drawn) [Example 1Qa, 1-({1-isopropyl-2-[4-(trifluoromethoxy)phenyl]-1H-benzimidazol-5-yl}carbonyl)-3-pyridin-3-ylpyrrolidin-3-ol], the IC50 is reported as 9 nM.

same assay, conditions: comparison of the resolved enantiomers, in words

For CC(C)n1c(-c2ccc(OC(F)(F)F)cc2)nc2cc(C(=O)N3CCC(c4cccnc4)C3)ccc21 (single isomer, unassigned) [Example 1Ar, 1-isopropyl-5-[(3-pyridin-3-ylpyrrolidin-1-yl)carbonyl]-2-[4-(trifluoromethoxy)phenyl]-1H-benzimidazole], the “IC50 results in the PAF Binding Assay, slower vs faster eluting enantiomer” value was “faster eluting enantiomer was preferred”.
